Measurements: ChEMBL document CHEMBL4359925, “Rational discovery of a highly novel and selective mTOR inhibitor” (Bioorg Med Chem Lett, 2019)
Active and inactive are the calls of the source. The calls are words filed in the database; no cut-off is given here.

Legend:
BT-474 = assay: Antiproliferative activity against human BT474; assay type: functional, cell-based
[1] = Cmax in rat at 4.9 mg/kg, po; assay type: ADME, organism-based; set-up: dose 4.9 mg/kg, route oral; conditions: in vivo
A498 = assay: Antiproliferative activity against human A498; assay type: functional, cell-based
[2] = Half-life in mouse at 26 mg/kg, po; assay type: ADME, organism-based; conditions: in vivo
NCI-H929 = assay: Antiproliferative activity against human NCI-H929 cells; assay type: functional, cell-based
[3] = Clearance in rat at 0.8 mg/kg, iv; assay type: ADME, organism-based; conditions: in vivo
[4] = Half-life in rat at 93 mg/kg, po; assay type: ADME, organism-based; conditions: in vivo
[5] = Half-life in rat at 3 mg/kg, po; assay type: ADME, organism-based; conditions: in vivo
[6] = Tmax in rat at 30 mg/kg, po; assay type: ADME, organism-based; conditions: in vivo
[7] = Cmax in rat at 31 mg/kg, po; assay type: ADME, organism-based; set-up: dose 31 mg/kg, route oral; conditions: in vivo
DU-145 = assay: Antiproliferative activity against human DU145 cells; assay type: functional, cell-based
NCI-H1650 [8] = assay: Antiproliferative activity against human NCI-H1650 cells; assay type: functional, cell-based
[9] = Cmax in dog at 10 mg/kg, po; assay type: ADME, organism-based, Canis lupus familiaris; set-up: dose 10 mg/kg, route oral; conditions: in vivo
[10] = Half-life in rat at 4.1 mg/kg, po; assay type: ADME, organism-based; conditions: in vivo
NCI-H292 = assay: Additive antiproliferative activity against human NCI-H292 cells in presence of gemcitabine; assay type: functional, cell-based
[11] = Half-life in dog at 30 mg/kg, po; assay type: ADME, organism-based, Canis lupus familiaris; conditions: in vivo
[12] = Half-life in mouse at 10.4 mg/kg, iv; assay type: ADME, organism-based; conditions: in vivo
NCI-H460 [13] = assay: Synergistic antiproliferative activity against human H460 cells harboring LKB1 mutant in presence of gemcitabine; assay type: functional, cell-based
[14] = Half-life in rat at 83 mg/kg, po; assay type: ADME, organism-based; conditions: in vivo
[15] = Tmax in mouse at 26 mg/kg, po; assay type: ADME, organism-based; conditions: in vivo
[16] = Cmax in rat at 4.1 mg/kg, po; assay type: ADME, organism-based; set-up: dose 4.1 mg/kg, route oral; conditions: in vivo
[17] = Cmax in mouse at 26 mg/kg, po; assay type: ADME, organism-based; set-up: dose 26 mg/kg, route oral; conditions: in vivo
MIA PaCa-2 = assay: Antiproliferative activity against human MIAPaCa2 cells; assay type: functional, cell-based
[18] = Tmax in rat at 93 mg/kg, po; assay type: ADME, organism-based; conditions: in vivo
[19] = Half-life in rat at 30 mg/kg, po; assay type: ADME, organism-based; conditions: in vivo
[20] = Cmax in rat at 95 mg/kg, po; assay type: ADME, organism-based; set-up: dose 95 mg/kg, route oral; conditions: in vivo
NCI-H1395 [21] = assay: Additive antiproliferative activity against human NCI-H1395 cells harboring LKB1 mutant in presence of gemcitabine; assay type: functional, cell-based
NCI-H1975 = assay: Additive antiproliferative activity against human NCI-H1975 cells harboring EGFR […]/T790M mutant in presence of erlotinib; assay type: functional, cell-based
[22] = Cmax in dog at 30 mg/kg, po; assay type: ADME, organism-based, Canis lupus familiaris; set-up: dose 30 mg/kg, route oral; conditions: in vivo
[23] = Tmax in rat at 4.1 mg/kg, po; assay type: ADME, organism-based; conditions: in vivo
A549 = assay: Synergistic antiproliferative activity against human A549 cells harboring LKB1 mutant in presence of gemcitabine; assay type: functional, cell-based
BXPC-3 = assay: Antiproliferative activity against human BxPC3 cells; assay type: functional, cell-based
HCT-116 = assay: Antiproliferative activity against human HCT116; assay type: functional, cell-based
NCI-H460 [24] = assay: Synergistic antiproliferative activity against human H460 cells harboring LKB1 mutant in presence of erlotinib; assay type: functional, cell-based
NCI-H460 [25] = assay: Synergistic antiproliferative activity against human H460 cells harboring KRAS […] mutant in presence of erlotinib
[26] = Cmax in rat at 30 mg/kg, po; assay type: ADME, organism-based; set-up: dose 30 mg/kg, route oral; conditions: in vivo
[27] = Volume of distribution at steady state in dog at 0.2 mg/kg, iv; assay type: ADME, organism-based, Canis lupus familiaris; conditions: in vivo, read-out: Vdss
[28] = Cmax in dog at 0.45 mg/kg, po; assay type: ADME, organism-based, Canis lupus familiaris; set-up: dose 0.45 mg/kg, route oral; conditions: in vivo
[29] = Half-life in dog at 0.2 mg/kg, iv; assay type: ADME, organism-based, Canis lupus familiaris; conditions: in vivo
[30] = Cmax in rat at 83 mg/kg, po; assay type: ADME, organism-based; set-up: dose 83 mg/kg, route oral; conditions: in vivo
NCI-H1395 [31] = assay: Additive antiproliferative activity against human NCI-H1395 cells harboring BRAF G469A in presence of erlotinib; assay type: functional, cell-based
[32] = Half-life in rat at 4.9 mg/kg, po; assay type: ADME, organism-based; conditions: in vivo
[33] = Half-life in dog at 10 mg/kg, po; assay type: ADME, organism-based, Canis lupus familiaris; conditions: in vivo
[34] = Tmax in rat at 3 mg/kg, po; assay type: ADME, organism-based; conditions: in vivo
[35] = Cmax in mouse at 10.4 mg/kg, iv; assay type: ADME, organism-based; set-up: dose 10.4 mg/kg, route intravenous; conditions: in vivo
[36] = Tmax in dog at 10 mg/kg, po; assay type: ADME, organism-based, Canis lupus familiaris; conditions: in vivo
NCI-H1650 [37] = assay: Additive antiproliferative activity against human NCI-H1650 cells harboring EGFR E746-A750del mutant in presence of erlotinib; assay type: functional, cell-based
[38] = Tmax in rat at 31 mg/kg, po; assay type: ADME, organism-based; conditions: in vivo

Cmax [1]: 1190 ng/mL
half-life [2]: 552 min
clearance [3]: 6.9 mL/min/kg
half-life [4]: 1400 min
half-life [5]: 618 min
Tmax [6]: 4 to 8 h
Cmax [7]: 1910 to 2700 ng/mL
Cmax [9]: 549 ng/mL
half-life [10]: 912 min
half-life [11]: 552 min
half-life [12]: 120 min
half-life [14]: 324 min
Tmax [15]: 6 h
Cmax [16]: 150 ng/mL
Cmax [17]: 11100 ng/mL
Tmax [18]: 8.7 h
half-life [19]: 540 to 810 min
Cmax [20]: 2610 ng/mL
Cmax [22]: 726 ng/mL
Tmax [23]: 4 h
Cmax [26]: 1850 to 2400 ng/mL
Vd [27]: 1.12 L/kg
Cmax [28]: 250 ng/mL
half-life [29]: 450 min
Cmax [30]: 2370 ng/mL
half-life [32]: 330 min
half-life [33]: 594 min
Tmax [34]: 6.7 h
Cmax [35]: 17700 ng/mL
Tmax [36]: 10.7 h
Tmax [38]: 8 to 19.3 h
SMILES: CC(F)(F)CN1C(=O)[C@]2(C)COCCN2c2nc(-c3ccc(NC(=O)NC4CC4)cc3)ncc21
Activity (BT-474): Active
Activity (A498): Active
Activity (NCI-H929): Active
Activity (DU-145): Active
Activity (NCI-H1650 [8]): Active
Activity (NCI-H292): Active
Activity (NCI-H460 [13]): Active
Activity (MIA PaCa-2): Active
Activity (NCI-H1395 [21]): Active
Activity (NCI-H1975): Active
Activity (A549): Active
Activity (BXPC-3): Active
Activity (HCT-116): Active
Activity (NCI-H460 [24]): Active
Activity (NCI-H460 [25]): Active
Activity (NCI-H1395 [31]): Active
Activity (NCI-H1650 [37]): Active
